{
  "source": "PubChem BioAssay AID1918958",
  "about": "(Molecular Pharmacology Branch, DTP, NCI, 2023)",
  "tested_on": "NCI-H196 complex spheroid viability",
  "experiment": "Anticancer human tumor NCI-H196 cell line growth inhibition [LSD1];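 also: spheroids exposed to agents for 7 days before readout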;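 as to viability, T/C: 100% = DMSO vehicle control viability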",
  "conditions": "for viability, T/C: stronger effect = lower value",
  "excerpt": "Multicellular complex tumor spheroid response to LSD1 Inhibitor Iadademstat in combination with a variety of drugs and investigational agents in selected tumor cell lines\nThe current study was undertaken to assess response to LSD1 inhibitors in combination with standard-of-care drugs and investigational agents in solid tumor complex spheroid models as well as in the K-562 leukemia. Complex spheroids include a stromal component modeled by human endothelial cells (HUVEC) and fibroblasts modeled by human mesenchymal stem cells (MSCs). The concentration ranges selected for each drug and investigational agent were based upon clinically achievable concentrations if the clinical Cmax of the agent was known.\nCompounds. The drugs and investigational agents used in this study are listed on Table 1. All of the agents used, including staurosporine (NSC755774) and gemcitabine (NSC613327), were obtained from the Developmental Therapeutics Program, NCI. FDA-approved anticancer drugs are available from the NCI at http://dtp.nci.nih.gov/branches/dscb/oncology_drugset_explanation.html. Drugs and investigational agents were >95% pure by proton nuclear magnetic resonance (NMR) and liquid chromatography/mass spectrometry (LC/MS). Stock solutions were prepared at 400x in DMSO, stored at -70 degrees C, and diluted in fresh medium prior to their use. The final concentration of DMSO in cell culture wells never exceeded 0.25% (v/v). The FDA-approved anticancer drug set is available from the Developmental Therapeutics Program at https://dtp.cancer.gov/organization/dscb/obtaining/available_plates.htm. All drugs and investigational agents were tested over a range starting from a high concentration at or near the clinical Cmax and decreasing in half-log increments. If the clinical Cmax for an agent had not been determined, the highest concentration tested was 10 microM.\nCell Lines. The patient-derived cancer cell (PDC) lines: 292921-168-R-J2-PDC, K24384-001-R-PDC, and 521955-158-R2-J5-PDC pancreatic carcinomas, 556581-035-R-J1 ovarian carcinoma, 324938-238-R-J1-PDC, 855422-203-R-J1-PDC and 883617-216-R-J1-PDC urothelial bladder carcinomas, 743489-274-T-PDC renal cell carcinoma, 138582-R-J1 Merkel cell tumor, K60290-347-R-J1 and K57222-313-R-J1-PDC glioblastomas, 653999-131-R-J2-PDC, LG0703-F948-PDC, and 349418-098-R-PDC non-small cell lung carcinomas, 885512-296-R-J2-PDC, 171881-019-R-J1-PDC breast carcinomas and 186277-243-T-J2-PDC and 233499-124-R-J2-PDC colon carcinomas were obtained from the NCI Patient-Derived Models Repository (PDMR, https://pdmr.cancer.gov). The established cell lines NCI/ADR-RES (RRID:CVCL_14520 and OVCAR-5 (RRID:CVCL_1628) ovarian carcinomas, 786-O (RRID:CVCL_1051) and A498 (RRID:CVCL_A498) renal cell carcinoma, NCI-H211 (ATCC, cat. CRL-5824; RRID:CVCL_1529), NCI-H196 (ATCC, cat. CRL-5823, RRID:CVCL_1509), SW 1271 (ATCC, cat. CRL-2177, RRID:CVCL_1716) and NCI-H1876 (ATCC, cat. CRL-5902, RRID:CVCL_1503) small cell lung carcinomas, MDA-MB-231 (RRID:CVCL_0062) and MDA-MB-468 (RRID:CVCL_0419)breast carcinomas (10-12). Pooled donor human umbilical vein endothelial cells (HUVEC, Lonza, cat. CC-2519) and human mesenchymal stem cells (hMSC, Lonza, cat. PT-2501) were purchased from Lonza (Walkersville, MD).\nCell Culture. All cells were maintained in an incubator at 37 degrees C and 5% CO2 with 95% humidity. The PDC lines were cultured according to standard operating procedures established by the NCI PDMR (https://pdmr.cancer.gov). Briefly all PDCs were thawed and cultured in Matrigel-coated flasks prepared with a working solution of 1X Ham's F-12 nutrient mix, without supplementation (Invitrogen, Waltham, MA, cat. 11765054), 100 U/mL penicillin-streptomycin (Invitrogen, cat. 15140122), and 2.5% Matrigel (Corning Inc., Corning, NY, cat. 354248) for the first three passages. […]",
  "note": "Values joined by “and” are separate entries in the source; they are usually repeats but may differ in a detail not shown here. Equal values may be shown once.",
  "data": [
    {"smiles": "COc1ccc([C@@H](O)c2cc(-c3ncnc4cc(N5CCOCC5)ccc34)c(F)cc2Cl)nn1", "values": [
      {"measurement": "viability, T/C", "setting": "compound 0.0316 µM", "result": "97.9% and 93.4%"},
      {"measurement": "viability, T/C", "setting": "compound 0.1 µM", "result": "100% and 90.9%"},
      {"measurement": "viability, T/C", "setting": "compound 0.316 µM", "result": "90.4% and 84.7%"},
      {"measurement": "viability, T/C", "setting": "compound 1 µM", "result": "86.4% and 85.7%"},
      {"measurement": "viability, T/C", "setting": "compound 3.16 µM", "result": "83.8% and 73.6%"},
      {"measurement": "viability, T/C", "setting": "compound 10 µM", "result": "57.7% and 53.2%"},
      {"measurement": "IC50", "setting": "curve of compound", "result": "> 10", "unit": "µM"}
    ]},
    {"smiles": "Nc1ncn(C2CC(O)C(CO)O2)c(=O)n1", "note": "(configuration not stated) + NC1CCC(NC2CC2c2ccccc2)CC1", "values": [
      {"measurement": "IC50", "setting": "curve of first compound, second compound 0.1 µM", "result": "> 1", "unit": "µM"},
      {"measurement": "IC50", "setting": "curve of first compound, second compound 0.316 µM", "result": "> 1", "unit": "µM"},
      {"measurement": "IC50", "setting": "curve of first compound, second compound 1 µM", "result": "> 1", "unit": "µM"},
      {"measurement": "IC50", "setting": "curve of first compound, second compound 3.16 µM", "result": "> 1", "unit": "µM"},
      {"measurement": "IC50", "setting": "curve of first compound, second compound 10 µM", "result": "> 1", "unit": "µM"},
      {"measurement": "viability, T/C", "setting": "second compound 0.1 µM, first compound 0.00316 µM", "result": 94.3, "unit": "%"},
      {"measurement": "viability, T/C", "setting": "second compound 0.1 µM, first compound 0.01 µM", "result": 96.1, "unit": "%"},
      {"measurement": "viability, T/C", "setting": "second compound 0.1 µM, first compound 0.0316 µM", "result": 96.1, "unit": "%"},
      {"measurement": "viability, T/C", "setting": "second compound 0.1 µM, first compound 0.1 µM", "result": 92.5, "unit": "%"},
      {"measurement": "viability, T/C", "setting": "second compound 0.1 µM, first compound 0.316 µM", "result": 93.3, "unit": "%"},
      {"measurement": "viability, T/C", "setting": "second compound 0.1 µM, first compound 1 µM", "result": 93, "unit": "%"},
      {"measurement": "viability, T/C", "setting": "second compound 0.316 µM, first compound 0.00316 µM", "result": 91, "unit": "%"},
      {"measurement": "viability, T/C", "setting": "second compound 0.316 µM, first compound 0.01 µM", "result": 97.4, "unit": "%"},
      {"measurement": "viability, T/C", "setting": "second compound 0.316 µM, first compound 0.0316 µM", "result": 114, "unit": "%"},
      {"measurement": "viability, T/C", "setting": "second compound 0.316 µM, first compound 0.1 µM", "result": 96.7, "unit": "%"},
      {"measurement": "viability, T/C", "setting": "second compound 0.316 µM, first compound 0.316 µM", "result": 96.9, "unit": "%"},
      {"measurement": "viability, T/C", "setting": "second compound 0.316 µM, first compound 1 µM", "result": 99.3, "unit": "%"},
      {"measurement": "viability, T/C", "setting": "second compound 1 µM, first compound 0.00316 µM", "result": 87.8, "unit": "%"},
      {"measurement": "viability, T/C", "setting": "second compound 1 µM, first compound 0.01 µM", "result": 94.9, "unit": "%"},
      {"measurement": "viability, T/C", "setting": "second compound 1 µM, first compound 0.0316 µM", "result": 94.9, "unit": "%"},
      {"measurement": "viability, T/C", "setting": "second compound 1 µM, first compound 0.1 µM", "result": 88.5, "unit": "%"},
      {"measurement": "viability, T/C", "setting": "second compound 1 µM, first compound 0.316 µM", "result": 93.8, "unit": "%"},
      {"measurement": "viability, T/C", "setting": "second compound 1 µM, first compound 1 µM", "result": 101, "unit": "%"},
      {"measurement": "viability, T/C", "setting": "second compound 3.16 µM, first compound 0.00316 µM", "result": 94.5, "unit": "%"},
      {"measurement": "viability, T/C", "setting": "second compound 3.16 µM, first compound 0.01 µM", "result": 95.8, "unit": "%"},
      {"measurement": "viability, T/C", "setting": "second compound 3.16 µM, first compound 0.0316 µM", "result": 99.2, "unit": "%"},
      {"measurement": "viability, T/C", "setting": "second compound 3.16 µM, first compound 0.1 µM", "result": 89.6, "unit": "%"},
      {"measurement": "viability, T/C", "setting": "second compound 3.16 µM, first compound 0.316 µM", "result": 87.1, "unit": "%"},
      {"measurement": "viability, T/C", "setting": "second compound 3.16 µM, first compound 1 µM", "result": 91.2, "unit": "%"},
      {"measurement": "viability, T/C", "setting": "second compound 10 µM, first compound 0.00316 µM", "result": 91.2, "unit": "%"},
      {"measurement": "viability, T/C", "setting": "second compound 10 µM, first compound 0.01 µM", "result": 94.8, "unit": "%"},
      {"measurement": "viability, T/C", "setting": "second compound 10 µM, first compound 0.0316 µM", "result": 91.2, "unit": "%"},
      {"measurement": "viability, T/C", "setting": "second compound 10 µM, first compound 0.1 µM", "result": 87.5, "unit": "%"},
      {"measurement": "viability, T/C", "setting": "second compound 10 µM, first compound 0.316 µM", "result": 92.9, "unit": "%"},
      {"measurement": "viability, T/C", "setting": "second compound 10 µM, first compound 1 µM", "result": 91.3, "unit": "%"}
    ]}
  ]
}
